{
  "source": "patent US9096499B2",
  "about": "“Compounds for treatment of cell proliferative diseases” (Board of Regents, The University of Texas System, priority 2003, dated 2015)",
  "key": {"Jak2/Stat3 signaling": {"tested_on": "Jak2/Stat3 signaling", "conditions": "literature; cited from earlier work"}, "OCI MM cells": {"tested_on": "OCI MM cells", "assay": "MTT cell growth and survival assay, OCI MM cells", "type": "cell-based", "conditions": "72 hours", "procedure": "(§1) To determine the effect of AG and WP compounds on MM cell growth/survival, MM cells were incubated with the indicated concentration of AG or WP for 72 hours before cell growth and survival were estimated by MTT assay.\n(§2) To determine the effect of AG and WP compounds on MM cell growth/survival MM cells were incubated with the indicated concentration of AG or WP for 72 hours before cell growth and survival were estimated by MTT assay."}, "MM-1 MM cells": {"tested_on": "MM-1 MM cells", "assay": "MTT cell growth and survival assay, MM-1 MM cells", "type": "cell-based", "conditions": "72 hours", "procedure": "as §1, §2"}, "U266 MM cells": {"tested_on": "U266 MM cells", "assay": "MTT cell growth and survival assay, U266 MM cells", "type": "cell-based", "conditions": "72 hours", "procedure": "as §1, §2"}, "c-myc": {"tested_on": "c-myc", "assay": "c-myc protein expression by immunoblot in MM cells", "type": "cell-based", "set-up": "key to C-Myc: (inhibition = ↓); (no effect) = —", "procedure": "(§3) To determine the effect of compounds on both Stat3 activation and c-myc protein expression MM-1, OCI-My5 and U266 cells were incubated with 25 μM of AG1801, AG490, WP1038, WP1039, WP1051, or WP1052 for 2 hours before cells were stimulated with 2 ng/ml IL-6 for 10 min. Cell lysates were prepared and immunoblotted for p-Stat3, Stat3, c-myc and actin (as a control).\nTo determine the temporal effects and mechanism of action of AG490 and AG1801 action on c-myc expression in MM cells, MM-1 cells were incubated with 0, 25, or 50 μM of AG490 or AG1801 and harvested at 30, 60, or 120 min. Lysates were immunoblotted for c-myc or actin as a protein loading control. […] Semi-quantitative PCR was used to measure changes in c-myc mRNA extracted from cells treated for 30 min with AG1801 at 25 μM. GAPDH PCR was used as a control.\nThese compounds were evaluated for their signal inhibitory and anti-proliferative/apoptotic properties on multiple myeloma, lymphoma and chronic myelogenous leukemia cell lines. WP1015, WP1034, AG1801, and AG490 were tested across a range of concentrations (6,12, and 25 μM) for their ability to inhibit c-myc expression using immunoblots.\nThese immunoblots tested a range of concentrations (1.56-25 μM for WP compounds) and used β-actin as a control."}, "OCI-My5 cells": {"tested_on": "OCI-My5 cells", "assay": "Caspase activation and PARP cleavage in OCI-My5 cells", "type": "cell-based", "conditions": "12.5 and 25 μM", "procedure": "To determine whether AG1801 effects caspase activation in MM cells, OCI-My5 cells were treated as described above before cell lysates were examined for casapase activation and PARP cleavage. […] At 12.5 and 25 μM, AG490 was ineffective in caspase activation and PARP clevage in these cells."}, "[1]": {"conditions": "literature; cited from earlier work"}, "Stat3": {"tested_on": "Stat3", "assay": "IL-6 mediated Stat3 activation (p-Stat3 immunoblot) in MM cells", "type": "cell-based", "set-up": "key to P-Stat 3: (inhibition = ↓); (no effect) = —", "procedure": "To examine the effect of newly synthesized AG and WP compounds on cytokine-mediated Stat activation, multiple myeloma (MM-1) cells were pretreated with AG490 or AG1801 at 2.5, 12, and 25 μM concentrations (for 2 hr) before stimulating cells with IL-6 or IFN-α for 10 min. Stat3 and Stat1 expression and activation were examined by immunoblotting.\nas §3, with “control). Both Stat3 activation and c-myc expression were effected by WP and AG compounds.” for “control).”"}, "[2]": {"tested_on": "MM colonies from bone marrow aspirates of MM patients", "assay": "Primary MM colony formation in methyl-cellulose", "type": "cell-based, human", "conditions": "25 μM, 7 to 10 days", "procedure": "To determine whether these compounds effect primary MM colony growth bone marrow aspirates from MM patients were partially-purified by magnetic bead separation and analyzed for immunoglobulin heavy-chain gene rearrangement by PCR. Cells were grown as colonies in methyl-cellulose in the presence or absence of AG compound as noted for 7 to 10 days. Control colonies were examined for Ig heavy chain gene rearrangement to confirm the clonal nature of the population."}},
  "data": [
    {"molecule": "N#C/C(=C\\c1ccc(O)c(O)c1)C(=O)NCc1ccccc1", "note": "[AG 490, reference compound]", "values": [
      {"measurement": "Concentration needed to achieve inhibition of Jak2/Stat3 signaling and anti-tumor effects", "setting": "Jak2/Stat3 signaling", "value": "50 to 100", "unit": "µM"},
      {"measurement": "IC50", "setting": "OCI MM cells; MTT assay", "value": "> 12.5", "unit": "µM"},
      {"measurement": "Growth and survival of OCI cells (in words)", "setting": "OCI MM cells; MTT, FIG. 2B/3B", "value": "effective in reducing the growth and survival"},
      {"measurement": "IC50", "setting": "MM-1 MM cells; MTT assay, read-out: IC50 (μM) MM1", "value": "> 12.5", "unit": "µM"},
      {"measurement": "Growth and survival of MM1 cells (in words)", "setting": "MM-1 MM cells; MTT, FIG. 2A/3A", "value": "effective in reducing the growth and survival"},
      {"measurement": "Growth and survival of U266 cells (in words)", "setting": "U266 MM cells; MTT, FIG. 2C/3C", "value": "effective in reducing the growth and survival"},
      {"measurement": "IC50", "setting": "U266 MM cells; Homo sapiens, U-266, MTT assay", "value": "> 12.5", "unit": "µM"},
      {"measurement": "Inhibition of c-myc protein expression", "setting": "c-myc; 6, 12, 25 μM, AG490 up to 50 μM", "value": "little or no effect"},
      {"measurement": "c-myc expression, temporal effects", "setting": "c-myc; MM-1 cells, 25 and 50 μM, 30, 60, 120 min", "value": "completely unable to affect c-myc expression"},
      {"measurement": "C-Myc", "setting": "c-myc; c-myc downregulation, immunoblot", "value": "↓"},
      {"measurement": "Caspase activation (caspase 3 and caspase 8)", "setting": "OCI-My5 cells", "value": "ineffective"},
      {"measurement": "PARP cleavage", "setting": "OCI-My5 cells", "value": "ineffective"},
      {"measurement": "Activity in animal studies", "setting": "[1]", "value": "limited activity"},
      {"measurement": "Suppression of IL-6 signaling (Stat3 activation)", "setting": "Stat3; MM-1 cells, 2 hr pretreatment, 12 and 25 μM, IL-6 10 min", "value": "inactive"},
      {"measurement": "P-Stat 3", "setting": "Stat3; Stat3 inhibition, immunoblot", "value": "↓"},
      {"measurement": "P-Stat 3: concentration at which inhibition is seen", "setting": "Stat3; immunoblot", "value": "> 25", "unit": "µM"},
      {"measurement": "Inhibition of MM colony formation", "setting": "[2]", "value": "less effective"}
    ]}
  ]
}
